In ChEMBL document CHEMBL1201862, “PubChem BioAssay data set” (2004) one finds AC50, IC50 and EC50 data, which are given here for 5 molecules.

Where a name gives a salt, the structure may show the parent alone. The source made the active and inactive calls. A value given as a limit tells only on which side of the number the result lay.

One test deals with Cytochrome P450 2D6 (Homo sapiens, UniProt P10635). Description: qHTS Assay for Inhibitors and Substrates of Cytochrome P450 2D6. [Related pubchem assays: 410 ]. The settings on record: read-out: Potency. The format is ADME. (In general: In qHTS, concentration-response curves come from the screen itself.)
The target of the next test is Cytochrome P450 2C19 (Homo sapiens, UniProt P33261). The test can be described thus: qHTS Assay for Inhibitors and Substrates of Cytochrome P450 2C19. [Related pubchem assays: 410 ]. The settings on record: read-out: Potency. The format is ADME.
In test [1] the target is Peroxisome proliferator-activated receptor gamma/Nuclear receptor corepressor 2 (Homo sapiens, UniProt P37231+Q9Y618). The test can be described thus: Counterscreen for NR2E3 inverse agonists: TR-FRET-based biochemical high throughput dose response assay to identify inverse agonists of the interaction between peroxisome proliferator-activated receptor gamma (PPARg) and nuclear receptor co-repressor 2 (NCOR2). The format is functional. In general terms: The purpose of a counterscreen is to sort out artefacts and off-target activity.

The target in test [2] is Photoreceptor-specific nuclear receptor (Homo sapiens, UniProt Q9Y5X4). The test can be described thus: NR2E3 inverse agonists, dose response, biochemical, TR-FRET (AID 463256). The format is functional. For orientation: TR-FRET usually uses a lanthanide donor and a delayed reading to cut background.
Test [3] addresses T1, Heat shock factor protein 1 (Mus musculus, UniProt P38532).
T1 sequence (P38532 whole entry): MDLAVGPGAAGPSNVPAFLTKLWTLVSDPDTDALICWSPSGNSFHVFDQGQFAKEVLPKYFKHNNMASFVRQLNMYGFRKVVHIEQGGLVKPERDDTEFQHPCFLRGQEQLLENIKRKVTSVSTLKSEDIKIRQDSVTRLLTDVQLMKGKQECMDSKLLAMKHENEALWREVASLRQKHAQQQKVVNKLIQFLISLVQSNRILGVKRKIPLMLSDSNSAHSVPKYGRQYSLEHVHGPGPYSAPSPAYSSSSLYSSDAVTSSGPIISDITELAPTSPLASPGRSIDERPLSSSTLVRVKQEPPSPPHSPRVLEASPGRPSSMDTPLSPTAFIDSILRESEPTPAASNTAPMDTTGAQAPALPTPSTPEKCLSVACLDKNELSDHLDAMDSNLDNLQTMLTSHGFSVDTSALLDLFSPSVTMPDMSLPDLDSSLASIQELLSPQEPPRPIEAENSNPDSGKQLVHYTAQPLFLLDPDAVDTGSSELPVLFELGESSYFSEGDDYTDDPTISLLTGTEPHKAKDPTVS
Description: HSF1 potentiators in luciferase reporter cells, confirmation, cell-based, NIH3T3, luminescence, dose retest (AID 435004).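 Note: stress induced by proteasome inhibitor MG132 added 30 min after compound; luciferase reporter driven by HSF1 response element in NIH3T3 cells; actives raise luminescence as potentiators of the MG132 stress response.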 The class given is functional.

In test [4] the target is Aryl hydrocarbon receptor (Homo sapiens, UniProt P35869). Description: Luminescence-based cell-based high throughput dose response assay for activators of the Aryl Hydrocarbon Receptor (AHR). [Related pubchem assays: 2796 (Primary screen (AHR activators in singlicate)), 2845 (Confirmation screen (AHR activators in triplicate)), 434939 (Counterscreen (PXR activators in triplicate)), 2804 (Summary (AHR activators))]. The class given is ADME.

Test [5] concerns the target T2, Dual specificity protein phosphatase 6 (Rattus norvegicus, UniProt Q64346).
T2 sequence (Q64346 whole entry): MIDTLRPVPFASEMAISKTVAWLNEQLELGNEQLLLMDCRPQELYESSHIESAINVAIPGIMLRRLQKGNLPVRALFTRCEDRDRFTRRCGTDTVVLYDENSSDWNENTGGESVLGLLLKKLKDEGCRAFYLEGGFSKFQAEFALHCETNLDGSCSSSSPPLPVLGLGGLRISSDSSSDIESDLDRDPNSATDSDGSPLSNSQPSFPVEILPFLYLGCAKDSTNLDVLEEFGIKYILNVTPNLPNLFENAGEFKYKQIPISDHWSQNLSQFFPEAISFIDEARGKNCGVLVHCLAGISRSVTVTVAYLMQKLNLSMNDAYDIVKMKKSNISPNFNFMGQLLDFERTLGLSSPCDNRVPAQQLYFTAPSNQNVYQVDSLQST
Description: MKP-3 phosphatase inhibitors, primary screen, biochemical, rat enzyme, in vitro (AID 425).

The test system of test [6] is Streptococcus sp. 'group A'. Description: growth inhibition of control SK(-) GAS strain, dose response, counter-screen for streptokinase expression inhibitor project, luminescence, kanamycin, BacTiterGlo, confirmation (AID 1900). The class given is functional, organism-based.
A further test concerns Streptococcus. Description: Group A Streptococcus viability loss, dose response, counter-screen for streptokinase expression inhibitor project, luminescence, BacTiterGlo (AID 1915).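 Note: potency for reduction of bacterial viability or growth.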 The format is functional, organism-based.
Another test concerns the target 14-3-3 protein gamma (Homo sapiens, UniProt P61981). The test can be described thus: modulators of 14-3-3 gamma client binding – dose response (AID 711). The format is functional.
The test system of a further test is HeLa. Description: HeLa cell cytotoxicity, dose response, cytotoxicity control, 24 h, cherry-picked samples (AID 504726).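 Note: potency for cytotoxicity as loss of luminescence signal.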 The format is functional, cell-based. The settings on record: Homo sapiens.
In test [7] the target is T3, Apoptotic protease-activating factor 1 (Homo sapiens, UniProt O14727).
T3 sequence (O14727 whole entry): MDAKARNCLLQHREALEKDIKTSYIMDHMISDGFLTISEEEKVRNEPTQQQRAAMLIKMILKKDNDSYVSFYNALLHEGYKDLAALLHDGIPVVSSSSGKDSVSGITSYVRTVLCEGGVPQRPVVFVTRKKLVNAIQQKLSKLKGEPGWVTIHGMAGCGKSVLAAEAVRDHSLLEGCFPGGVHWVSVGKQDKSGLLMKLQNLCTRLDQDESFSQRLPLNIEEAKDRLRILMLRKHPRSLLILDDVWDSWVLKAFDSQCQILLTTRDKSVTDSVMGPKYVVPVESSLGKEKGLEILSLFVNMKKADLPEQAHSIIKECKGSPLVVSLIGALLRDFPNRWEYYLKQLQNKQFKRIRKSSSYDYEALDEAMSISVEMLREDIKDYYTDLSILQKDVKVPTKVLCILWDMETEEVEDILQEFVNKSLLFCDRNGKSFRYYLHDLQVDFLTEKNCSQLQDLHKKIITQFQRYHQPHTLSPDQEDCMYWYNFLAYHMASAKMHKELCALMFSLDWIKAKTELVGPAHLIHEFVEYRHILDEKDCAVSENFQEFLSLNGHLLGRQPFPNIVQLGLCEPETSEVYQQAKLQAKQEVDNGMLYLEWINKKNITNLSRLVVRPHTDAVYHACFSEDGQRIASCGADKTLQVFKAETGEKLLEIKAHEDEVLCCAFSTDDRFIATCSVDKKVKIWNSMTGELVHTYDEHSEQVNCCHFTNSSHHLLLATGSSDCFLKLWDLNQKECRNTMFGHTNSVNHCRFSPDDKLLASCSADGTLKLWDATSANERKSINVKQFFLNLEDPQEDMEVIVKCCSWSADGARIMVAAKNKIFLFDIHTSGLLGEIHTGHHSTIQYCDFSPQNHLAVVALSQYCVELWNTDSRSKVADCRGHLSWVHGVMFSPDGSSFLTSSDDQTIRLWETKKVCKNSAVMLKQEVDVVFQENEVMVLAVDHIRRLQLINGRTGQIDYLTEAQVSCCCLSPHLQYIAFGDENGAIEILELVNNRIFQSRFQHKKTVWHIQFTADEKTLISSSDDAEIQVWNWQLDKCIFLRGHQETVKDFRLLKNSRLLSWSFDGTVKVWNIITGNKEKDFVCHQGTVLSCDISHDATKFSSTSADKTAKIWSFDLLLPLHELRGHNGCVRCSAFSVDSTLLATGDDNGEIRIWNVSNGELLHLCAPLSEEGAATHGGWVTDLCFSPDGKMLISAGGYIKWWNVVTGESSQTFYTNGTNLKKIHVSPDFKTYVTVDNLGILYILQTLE
The format is functional.

The next test deals with Keap1/Nrf2 (Homo sapiens, UniProt Q14145). Description: Keap1-Nrf2 protein-protein interaction inhibitors, dose response, biochemical, fluorescence polarization, cherry-picked samples (AID 588683).
The target of test [8] is UDP-galactopyranose mutase (Mycobacterium tuberculosis, UniProt P9WIQ1). Description: Inhibitors of Mycobacterium tuberculosis UDP-galactopyranose mutase (UGM) enzyme Measured in Biochemical System Using Plate Reader - 2105-02_Inhibitor_Dose_CherryPick_Activity. [Related pubchem assays (depositor defined):AID504439].
The target of the next test is Protein S100-A4 (Homo sapiens, UniProt P26447). Description: S100A4-myosin IIA binding inhibitor potency, dose response, biochemical, fluorescence polarization, cherry-picked hits (AID 687001). The class given is functional.
Another test concerns BJ. Description: cytotoxicity toward Ras-transformed BJeLR fibroblasts, dose response, cell-based, alamar blue fluorescence, cherrypicked samples (AID 2631).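 Note: confirmatory dose-response assay in RAS-dependent BJ fibroblasts engineered with TERT, LT and ST, with cytotoxicity read by fluorescence.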 The class given is functional. The settings on record: Homo sapiens.
A short description of test [9]: cytotoxicity in HEK-293T NF-kB-Luc cells, dose response, cytotoxicity control for B/T-cell NF-kB inhibitor project, cell-based, uHTS hits (AID 489019).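 Note: IC50 reflects cytotoxicity as loss of cell viability.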 The class given is functional.
In another test the target is T4, ORF 73 (Human herpesvirus 8, UniProt O40947).
T4 sequence (O40947 whole entry): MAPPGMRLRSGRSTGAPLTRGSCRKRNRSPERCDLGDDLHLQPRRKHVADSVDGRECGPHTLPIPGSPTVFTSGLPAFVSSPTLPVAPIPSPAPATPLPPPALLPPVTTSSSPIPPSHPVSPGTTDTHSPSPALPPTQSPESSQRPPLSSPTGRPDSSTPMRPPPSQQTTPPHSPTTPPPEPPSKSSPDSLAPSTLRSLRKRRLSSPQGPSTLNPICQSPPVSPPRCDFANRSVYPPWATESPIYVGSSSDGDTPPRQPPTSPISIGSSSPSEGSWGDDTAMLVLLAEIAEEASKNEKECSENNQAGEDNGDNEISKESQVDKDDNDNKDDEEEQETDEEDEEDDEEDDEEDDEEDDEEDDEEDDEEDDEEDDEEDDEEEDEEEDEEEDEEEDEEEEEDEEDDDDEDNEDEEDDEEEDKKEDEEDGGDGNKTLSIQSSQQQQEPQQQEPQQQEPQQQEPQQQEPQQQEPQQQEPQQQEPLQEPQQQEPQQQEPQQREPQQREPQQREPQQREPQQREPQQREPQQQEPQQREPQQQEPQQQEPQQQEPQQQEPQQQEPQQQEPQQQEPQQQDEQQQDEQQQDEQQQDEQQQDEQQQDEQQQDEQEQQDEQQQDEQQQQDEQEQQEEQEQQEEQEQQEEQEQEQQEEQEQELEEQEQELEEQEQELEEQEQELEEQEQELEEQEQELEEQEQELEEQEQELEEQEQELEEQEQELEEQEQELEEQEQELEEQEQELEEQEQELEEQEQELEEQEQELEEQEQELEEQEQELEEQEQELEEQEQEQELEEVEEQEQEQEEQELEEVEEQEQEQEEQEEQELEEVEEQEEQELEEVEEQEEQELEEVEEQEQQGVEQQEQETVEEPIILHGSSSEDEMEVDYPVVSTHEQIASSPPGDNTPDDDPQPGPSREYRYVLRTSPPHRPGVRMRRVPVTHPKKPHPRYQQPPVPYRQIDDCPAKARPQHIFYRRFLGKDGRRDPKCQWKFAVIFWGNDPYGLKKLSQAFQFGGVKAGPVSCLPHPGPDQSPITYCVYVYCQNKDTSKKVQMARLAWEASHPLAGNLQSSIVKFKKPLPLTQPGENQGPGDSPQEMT
Description: inhibitors of C-LANA binding to LBS DNA, dose response, biochemical, fluorescence polarization, cherry-picked samples (AID 504725).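 Note: fluorescence polarization of a labeled DNA duplex reporting LANA DNA binding; potency is for inhibitors that block LANA binding to the DNA.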 On the set-up: species or system Human gammaherpesvirus 8.

Aryl hydrocarbon receptor, sequence (P35869 whole entry): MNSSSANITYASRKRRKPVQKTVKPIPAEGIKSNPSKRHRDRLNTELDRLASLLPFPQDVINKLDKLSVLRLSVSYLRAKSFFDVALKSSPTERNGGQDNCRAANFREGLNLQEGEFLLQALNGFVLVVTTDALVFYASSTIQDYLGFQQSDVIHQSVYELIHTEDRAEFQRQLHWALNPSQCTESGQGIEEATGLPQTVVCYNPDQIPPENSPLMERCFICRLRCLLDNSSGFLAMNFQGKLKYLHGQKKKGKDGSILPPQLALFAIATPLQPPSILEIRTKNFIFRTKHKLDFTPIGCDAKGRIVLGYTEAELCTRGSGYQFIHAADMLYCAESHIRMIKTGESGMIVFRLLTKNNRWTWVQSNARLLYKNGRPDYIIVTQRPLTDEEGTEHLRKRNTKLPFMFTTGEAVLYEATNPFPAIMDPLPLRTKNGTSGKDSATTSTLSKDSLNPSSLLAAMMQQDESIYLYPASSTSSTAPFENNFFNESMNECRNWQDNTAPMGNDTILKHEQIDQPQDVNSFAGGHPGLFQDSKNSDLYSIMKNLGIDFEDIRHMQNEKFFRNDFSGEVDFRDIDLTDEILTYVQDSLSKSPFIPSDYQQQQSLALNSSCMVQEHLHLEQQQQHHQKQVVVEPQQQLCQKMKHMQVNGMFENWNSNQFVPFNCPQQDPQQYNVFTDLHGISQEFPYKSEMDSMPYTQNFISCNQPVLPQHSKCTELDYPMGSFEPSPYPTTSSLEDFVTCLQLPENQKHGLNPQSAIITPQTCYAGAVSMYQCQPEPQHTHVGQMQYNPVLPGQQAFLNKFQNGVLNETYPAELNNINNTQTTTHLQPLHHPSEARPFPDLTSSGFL
Photoreceptor-specific nuclear receptor, sequence (Q9Y5X4 whole entry): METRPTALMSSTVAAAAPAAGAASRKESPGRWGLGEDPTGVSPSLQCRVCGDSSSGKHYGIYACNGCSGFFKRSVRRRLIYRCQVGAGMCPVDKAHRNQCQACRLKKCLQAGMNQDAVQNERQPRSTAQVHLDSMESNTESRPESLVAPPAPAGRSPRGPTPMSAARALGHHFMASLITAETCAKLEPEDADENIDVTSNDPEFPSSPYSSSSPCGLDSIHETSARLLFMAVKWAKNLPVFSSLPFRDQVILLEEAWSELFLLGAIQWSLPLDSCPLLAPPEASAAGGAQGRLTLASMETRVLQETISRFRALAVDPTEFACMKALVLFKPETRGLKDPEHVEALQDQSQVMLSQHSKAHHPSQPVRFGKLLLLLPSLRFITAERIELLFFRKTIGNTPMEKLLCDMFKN
UDP-galactopyranose mutase, sequence (P9WIQ1 whole entry): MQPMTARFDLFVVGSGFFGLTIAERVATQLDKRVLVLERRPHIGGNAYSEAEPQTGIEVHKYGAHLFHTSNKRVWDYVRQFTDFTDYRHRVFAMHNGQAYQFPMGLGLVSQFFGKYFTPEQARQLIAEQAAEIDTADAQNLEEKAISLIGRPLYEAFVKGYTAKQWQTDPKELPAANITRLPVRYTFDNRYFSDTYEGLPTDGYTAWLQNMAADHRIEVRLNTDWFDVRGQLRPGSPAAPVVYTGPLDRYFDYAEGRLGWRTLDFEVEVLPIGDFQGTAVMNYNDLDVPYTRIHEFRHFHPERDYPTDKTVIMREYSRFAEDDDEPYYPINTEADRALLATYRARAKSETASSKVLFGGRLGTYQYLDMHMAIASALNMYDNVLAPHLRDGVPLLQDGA
Cytochrome P450 2D6, sequence (P10635 whole entry): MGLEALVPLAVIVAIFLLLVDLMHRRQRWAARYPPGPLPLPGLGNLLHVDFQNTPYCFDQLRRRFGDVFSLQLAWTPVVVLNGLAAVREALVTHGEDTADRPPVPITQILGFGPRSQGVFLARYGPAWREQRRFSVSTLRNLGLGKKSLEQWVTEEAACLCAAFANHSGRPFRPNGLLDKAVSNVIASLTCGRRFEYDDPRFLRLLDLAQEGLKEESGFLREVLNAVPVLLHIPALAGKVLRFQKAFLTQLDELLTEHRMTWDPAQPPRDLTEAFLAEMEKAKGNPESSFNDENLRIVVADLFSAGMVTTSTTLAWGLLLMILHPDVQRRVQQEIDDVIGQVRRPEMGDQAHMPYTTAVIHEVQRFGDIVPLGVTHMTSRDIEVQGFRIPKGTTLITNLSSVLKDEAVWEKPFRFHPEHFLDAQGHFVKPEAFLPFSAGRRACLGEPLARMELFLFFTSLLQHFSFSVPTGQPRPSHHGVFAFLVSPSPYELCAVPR
14-3-3 protein gamma, sequence (P61981 whole entry): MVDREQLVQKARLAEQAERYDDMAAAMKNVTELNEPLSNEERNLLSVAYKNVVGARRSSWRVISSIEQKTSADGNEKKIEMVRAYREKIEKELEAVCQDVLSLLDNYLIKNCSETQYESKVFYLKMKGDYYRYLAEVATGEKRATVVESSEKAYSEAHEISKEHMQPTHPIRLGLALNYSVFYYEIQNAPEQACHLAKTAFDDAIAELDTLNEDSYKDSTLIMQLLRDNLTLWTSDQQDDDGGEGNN
Keap1/Nrf2, sequence (Q16236 whole entry): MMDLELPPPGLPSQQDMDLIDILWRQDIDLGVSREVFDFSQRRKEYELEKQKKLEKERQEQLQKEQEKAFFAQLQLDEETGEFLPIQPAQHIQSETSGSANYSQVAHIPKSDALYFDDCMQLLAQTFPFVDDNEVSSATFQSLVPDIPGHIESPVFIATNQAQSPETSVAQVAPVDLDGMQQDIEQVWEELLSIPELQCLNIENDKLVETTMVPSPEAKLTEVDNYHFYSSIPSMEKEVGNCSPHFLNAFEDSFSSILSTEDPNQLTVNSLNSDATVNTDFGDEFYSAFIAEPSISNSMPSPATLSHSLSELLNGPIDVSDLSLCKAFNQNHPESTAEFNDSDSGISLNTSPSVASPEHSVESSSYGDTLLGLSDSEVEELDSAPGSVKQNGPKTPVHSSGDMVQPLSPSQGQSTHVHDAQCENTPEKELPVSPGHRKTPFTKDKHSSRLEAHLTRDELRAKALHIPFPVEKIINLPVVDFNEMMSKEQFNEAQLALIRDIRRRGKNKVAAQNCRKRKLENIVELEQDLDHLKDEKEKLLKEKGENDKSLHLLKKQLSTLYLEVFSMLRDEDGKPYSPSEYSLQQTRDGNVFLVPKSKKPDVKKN
Keap1/Nrf2, sequence (Q14145 whole entry): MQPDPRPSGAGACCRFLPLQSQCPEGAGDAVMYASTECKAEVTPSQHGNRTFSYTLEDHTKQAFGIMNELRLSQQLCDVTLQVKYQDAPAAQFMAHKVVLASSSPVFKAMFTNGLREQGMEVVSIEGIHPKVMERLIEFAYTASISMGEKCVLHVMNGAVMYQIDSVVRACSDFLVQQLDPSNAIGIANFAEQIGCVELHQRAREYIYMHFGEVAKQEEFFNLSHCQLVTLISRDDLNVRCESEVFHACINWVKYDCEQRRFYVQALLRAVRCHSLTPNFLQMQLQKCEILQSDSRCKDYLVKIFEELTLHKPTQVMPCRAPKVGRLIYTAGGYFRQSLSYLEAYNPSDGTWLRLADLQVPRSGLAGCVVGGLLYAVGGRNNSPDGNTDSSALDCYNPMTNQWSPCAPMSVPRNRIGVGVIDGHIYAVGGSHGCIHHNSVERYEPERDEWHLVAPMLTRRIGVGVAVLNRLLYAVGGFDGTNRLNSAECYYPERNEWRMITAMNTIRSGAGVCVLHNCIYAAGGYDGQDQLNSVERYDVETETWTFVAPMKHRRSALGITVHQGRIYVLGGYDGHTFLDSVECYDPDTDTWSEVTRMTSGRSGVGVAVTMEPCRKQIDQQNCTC
Cytochrome P450 2C19, sequence (P33261 whole entry): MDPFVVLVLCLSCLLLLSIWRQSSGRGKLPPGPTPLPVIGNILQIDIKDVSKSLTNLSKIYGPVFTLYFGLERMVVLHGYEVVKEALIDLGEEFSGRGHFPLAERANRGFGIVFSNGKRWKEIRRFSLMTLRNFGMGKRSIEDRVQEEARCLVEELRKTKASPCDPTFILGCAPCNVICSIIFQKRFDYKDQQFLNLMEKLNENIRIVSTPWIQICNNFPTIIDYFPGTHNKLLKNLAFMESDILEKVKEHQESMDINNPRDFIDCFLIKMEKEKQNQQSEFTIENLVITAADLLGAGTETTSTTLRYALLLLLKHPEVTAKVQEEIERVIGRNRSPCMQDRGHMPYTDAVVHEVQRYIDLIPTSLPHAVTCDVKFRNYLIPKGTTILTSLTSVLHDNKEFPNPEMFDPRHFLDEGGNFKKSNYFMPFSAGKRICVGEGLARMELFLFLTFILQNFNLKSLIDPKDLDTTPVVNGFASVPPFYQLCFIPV
Protein S100-A4, sequence (P26447 whole entry): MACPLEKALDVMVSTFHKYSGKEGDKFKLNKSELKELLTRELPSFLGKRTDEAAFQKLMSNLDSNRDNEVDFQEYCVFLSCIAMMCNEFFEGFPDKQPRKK

Regarding `COC(=O)NC(/C(C(=O)OC)=C(\C)NCc1ccccc1)c1cccc(C)c1` (stereo not drawn), the AC50 at Cytochrome P450 2D6 was 7.94 µM (inconclusive); at Cytochrome P450 2C19, 6.31 µM (inconclusive).

For orientation: IC50 means the concentration that gives 50% inhibition. Turning to `NC(=O)c1ccc(NC(=O)CNC(=O)c2sc3ccccc3c2Cl)cc1`, the IC50 in [1] was 2.8 µM (active); in [2] it was 4.85 µM (active).

Usually EC50 stands for the concentration giving half of the maximal effect. Take `Cc1cccc2cc3c(N)c(C(=O)N4CCOCC4)sc3nc12`: the EC50 in [3] was > 260 µM (inactive); in [4], > 3.39 µM (active).

`COC(=O)CCCc1nc2ccccc2s1`: the IC50 in [5] is > 100 µM (not active).

Consider `COc1cccc2c1C(=O)c1c(O)c3c(c(O)c1C2=O)C[C@@](O)(C(=O)CO)C[C@@H]3O[C@H]1C[C@H](N)[C@H](O)[C@H](C)O1` [DOXORUBICIN HYDROCHLORIDE], for which the figures for the EC50 (in [6]; with Streptococcus; in the test with BJ) were 0.518 µM (active), 3.69 µM (active) and < 0.104 µM (active), respectively. Besides, the 50% inhibitory concentration (IC50) is < 0.781 µM (active) on 14-3-3 protein gamma, 21.2 µM (active) in [7] and > 80 µM (inactive) in [9]. Moreover, the AC50 is 4.38 µM (active) with HeLa; 43.4 µM (active) on Keap1/Nrf2; 32.2 µM (active) in test [8]; 0.323 µM (active) on Protein S100-A4; 1.46 µM (active) at ORF 73.
